“And” between values parts separate entries of the source, which are not always exact repeats. Identical values can stand only once. ± gives the uncertainty stated by the source.
Assay: xn = mol fraction of the nth substance listed

CCCC[n+]1ccn(C)c1.F[B-](F)(F)F + CN1CCCC1=O
viscosity, 101 kPa
Settings	298.15 K	303.15 K	308.15 K	313.15 K	323.15 K
x1 = 0.0115	2.02 ± 0.26 mPa·s	1.88 ± 0.24 mPa·s	1.52 ± 0.2 mPa·s	1.44 ± 0.19 mPa·s	–
x2 = 0	101 ± 13 mPa·s	81 ± 10 mPa·s and 84.2 ± 1.6 mPa·s	61.5 ± 7.9 mPa·s	51.5 ± 6.6 mPa·s	35.5 ± 0.4 mPa·s
x2 = 0.043	86 ± 11 mPa·s	73.7 ± 9.5 mPa·s	58.1 ± 7.5 mPa·s	–	–
x2 = 0.0879	76.3 ± 9.8 mPa·s	63.5 ± 8.2 mPa·s	51.2 ± 6.6 mPa·s	43.1 ± 5.5 mPa·s	–
x2 = 0.0999	–	63.2 ± 0.7 mPa·s	–	–	–
x2 = 0.2001	–	47.1 ± 0.5 mPa·s	–	–	–
x2 = 0.2126	56.9 ± 7.3 mPa·s	46.1 ± 5.9 mPa·s	36.1 ± 4.6 mPa·s	32.5 ± 4.2 mPa·s	–
x2 = 0.3028	–	34.7 ± 0.4 mPa·s	–	–	–
x2 = 0.388	35.2 ± 4.5 mPa·s	25.2 ± 3.2 mPa·s	16.5 ± 2.1 mPa·s	14.6 ± 1.9 mPa·s	–
x2 = 0.4	–	24.58 ± 0.27 mPa·s	–	–	–
x2 = 0.5343	21.7 ± 2.8 mPa·s	14.8 ± 1.9 mPa·s	9.2 ± 1.2 mPa·s	6.53 ± 0.84 mPa·s	–
x2 = 0.6577	13.1 ± 1.7 mPa·s	9.5 ± 1.2 mPa·s	6.81 ± 0.87 mPa·s	5.38 ± 0.69 mPa·s	–
x2 = 0.7001	–	–	–	–	4.6 ± 0.06 mPa·s
x2 = 0.7221	9.1 ± 1.2 mPa·s	7.8 ± 1 mPa·s	5.61 ± 0.72 mPa·s	5.01 ± 0.64 mPa·s	–
x2 = 0.7612	7.67 ± 0.98 mPa·s	6.86 ± 0.88 mPa·s	6.01 ± 0.77 mPa·s	5.33 ± 0.68 mPa·s	–
x2 = 0.8524	4.94 ± 0.63 mPa·s	4.45 ± 0.57 mPa·s	3.99 ± 0.51 mPa·s	3.58 ± 0.46 mPa·s	–
x2 = 0.9005	3.6 ± 0.46 mPa·s	3.27 ± 0.42 mPa·s	2.95 ± 0.38 mPa·s	2.69 ± 0.34 mPa·s	–
x2 = 0.9321	2.96 ± 0.38 mPa·s	2.88 ± 0.37 mPa·s	2.81 ± 0.36 mPa·s	2.09 ± 0.27 mPa·s	–
x2 = 0.9743	2.3 ± 0.29 mPa·s	2.11 ± 0.27 mPa·s	1.93 ± 0.25 mPa·s	1.79 ± 0.23 mPa·s	–

CCCCCCCCn1cc[n+](C)c1.O=S(=O)([N-]S(=O)(=O)C(F)(F)F)C(F)(F)F + CN(C)C=O
viscosity [mPa·s], 101 kPa
Settings	293.15 K	303.15 K	313.15 K	323.15 K	333.15 K	343.15 K	353.15 K	363.15 K
x1 = 0.001926	0.959 ± 0.028	0.858 ± 0.027	0.771 ± 0.028	0.702 ± 0.026	0.641 ± 0.023	0.59 ± 0.024	0.543 ± 0.018	0.502 ± 0.016
x1 = 0.003917	0.982 ± 0.023	0.876 ± 0.02	0.787 ± 0.018	0.715 ± 0.016	0.653 ± 0.015	0.598 ± 0.014	0.552 ± 0.013	0.51 ± 0.012
x1 = 0.007695	1.019 ± 0.023	0.907 ± 0.021	0.818 ± 0.019	0.738 ± 0.017	0.672 ± 0.015	0.617 ± 0.014	0.568 ± 0.013	0.524 ± 0.012
x1 = 0.01197	1.059 ± 0.024	0.942 ± 0.021	0.85 ± 0.019	0.762 ± 0.017	0.694 ± 0.016	0.635 ± 0.015	0.584 ± 0.014	0.539 ± 0.013
x1 = 0.01518	1.096 ± 0.025	0.971 ± 0.022	0.877 ± 0.02	0.784 ± 0.018	0.713 ± 0.016	0.653 ± 0.015	0.598 ± 0.014	0.552 ± 0.013
x1 = 0.0193	1.136 ± 0.026	1.006 ± 0.023	0.909 ± 0.021	0.81 ± 0.019	0.734 ± 0.017	0.669 ± 0.015	0.614 ± 0.014	0.579 ± 0.014

CCCC[n+]1ccn(C)c1.F[B-](F)(F)F + CN(C)C=O
Settings	viscosity [mPa·s]
293.15 K, 101 kPa, x1 = 0.08	3.1 ± 0.47
298.15 K, 101 kPa, x1 = 0.74	42.5 ± 6.4
298.15 K, 101 kPa, x1 = 0.83	62.4 ± 9.4
298.15 K, 101 kPa, x1 = 0.94	88 ± 13
298.15 K, 101.33 kPa, x2 = 0.1024	78 ± 20
303.15 K, 100 kPa, x1 = 0.1008	1.497 ± 0.017
303.15 K, 101 kPa, x1 = 0.94	74 ± 11
308.15 K, 101 kPa, x1 = 0.43	5.71 ± 0.86
313.15 K, 100 kPa, x1 = 0.8015	25.47 ± 0.28
313.15 K, 100 kPa, x1 = 1	53.84 ± 0.55
313.15 K, 101 kPa, x1 = 0.16	2.45 ± 0.37
313.15 K, 101 kPa, x1 = 0.74	18.5 ± 2.8
318.15 K, 101 kPa, x1 = 0.08	1.42 ± 0.21
318.15 K, 101 kPa, x1 = 0.55	1.67 ± 0.25
318.15 K, 101 kPa, x1 = 0.74	12 ± 1.8
323.15 K, 100 kPa, x1 = 0.3022	2.993 ± 0.034
323.15 K, 100 kPa, x1 = 0.7019	14.07 ± 0.15
323.15 K, 101 kPa, x1 = 0.08	1.19 ± 0.18
323.15 K, 101 kPa, x1 = 0.74	6.8 ± 1
323.15 K, 101 kPa, x1 = 0.94	26.6 ± 4
333.15 K, 100 kPa, x1 = 0.7019	10.75 ± 0.12

NC(N)=[NH2+].O=S(=O)([O-])C(F)(F)F + CN(CCO)CCO + O
Settings	viscosity [mPa·s]
323.2 K, 101 kPa, x2 = 0.1179, x3 = 0.8792	3.5 ± 1.5

CCCC[n+]1ccn(C)c1.F[B-](F)(F)F + CNC(C)=O
Settings	viscosity [mPa·s]
293.15 K, 101 kPa, x1 = 1	127.6 ± 8.5

CCCC[n+]1ccn(C)c1.F[B-](F)(F)F + CO
101 kPa
Settings	electrical conductivity [S/m]	viscosity [mPa·s]
298.1 K, x1 = 0.007405	0.598	–
298.1 K, x1 = 0.03422	1.35	–
303.15 K, x2 = 0.6004	–	5.98 ± 0.07
313.15 K, x2 = 0	–	53 ± 0.5
313.15 K, x2 = 0.1003	–	36.1 ± 0.4
313.15 K, x2 = 0.2047	–	24.26 ± 0.27
313.15 K, x2 = 0.7997	–	1.778 ± 0.023
313.15 K, x2 = 0.9001	–	0.993 ± 0.013
323.15 K, x2 = 0.1003	–	25.42 ± 0.29
323.15 K, x2 = 0.6004	–	4.07 ± 0.05
333.15 K, x2 = 0.3996	–	7.23 ± 0.09

CC1COC(=O)O1 (centres undefined) + COCCn1cc[n+](C)c1.N#C[S-]
101 kPa, x2 = 0
Settings	viscosity [mPa·s]
288.15 K	3.06 ± 0.61
293.15 K	2.75 ± 0.55
298.15 K	2.47 ± 0.49
303.15 K	2.25 ± 0.45
308.15 K	2.05 ± 0.41
313.15 K	1.88 ± 0.38
318.15 K	1.73 ± 0.35
323.15 K	1.6 ± 0.32
328.15 K	1.49 ± 0.3
333.15 K	1.39 ± 0.28
338.15 K	1.29 ± 0.26
343.15 K	1.21 ± 0.24

CCCOCCO + COS(=O)(=O)[O-].Cn1cc[n+](C)c1
viscosity [mPa·s], 101 kPa
Settings	x2 = 0.00104	x2 = 0.002597	x2 = 0.004149	x2 = 0.005696	x2 = 0.007238	x2 = 0.008775
293.15 K	2.6 ± 0.03	2.63 ± 0.03	2.65 ± 0.03	2.67 ± 0.03	2.7 ± 0.03	2.73 ± 0.03
303.15 K	2.15 ± 0.03	2.18 ± 0.03	2.21 ± 0.03	2.24 ± 0.03	2.27 ± 0.03	2.29 ± 0.03
313.15 K	1.81 ± 0.03	1.84 ± 0.03	1.88 ± 0.03	1.91 ± 0.03	1.95 ± 0.03	1.99 ± 0.03

CCC[N+]1(C)CCCC1.O=S(=O)([N-]S(=O)(=O)C(F)(F)F)C(F)(F)F + CS(C)=O
electrical conductivity [S/m], 101 kPa, frequency 0.0005 MHz
Settings	278.15 K	288.15 K	298.15 K	308.15 K	318.15 K	328.15 K	338.15 K	348.15 K	358.15 K
x1 = 0.05995	–	0.967 ± 0.039	1.18 ± 0.047	1.4 ± 0.056	1.62 ± 0.065	1.85 ± 0.074	2.08 ± 0.08	2.31 ± 0.09	2.54 ± 0.1
x1 = 0.1606	0.953 ± 0.038	1.21 ± 0.048	1.5 ± 0.06	1.79 ± 0.071	2.01 ± 0.08	2.39 ± 0.1	2.76 ± 0.11	3.05 ± 0.12	3.39 ± 0.14
x1 = 0.3647	0.66 ± 0.026	0.879 ± 0.035	1.09 ± 0.044	1.37 ± 0.055	1.65 ± 0.066	1.9 ± 0.076	2.12 ± 0.08	2.41 ± 0.1	2.75 ± 0.11

viscosity [mPa·s], 101 kPa
Settings	278.15 K	288.15 K	298.15 K	308.15 K	318.15 K	328.15 K	338.15 K	348.15 K	358.15 K
x1 = 0.05995	–	3.56 ± 0.14	2.86 ± 0.12	2.367 ± 0.095	1.965 ± 0.079	1.682 ± 0.068	1.446 ± 0.058	1.27 ± 0.051	1.126 ± 0.046
x1 = 0.1606	7.89 ± 0.32	5.88 ± 0.24	4.56 ± 0.18	3.66 ± 0.15	2.99 ± 0.12	2.51 ± 0.1	2.138 ± 0.086	1.847 ± 0.075	1.623 ± 0.066
x1 = 0.3647	20.1 ± 0.84	13.94 ± 0.56	10.18 ± 0.41	7.75 ± 0.31	6.1 ± 0.25	4.93 ± 0.2	4.08 ± 0.16	3.44 ± 0.14	2.95 ± 0.12
x1 = 1	163.6 ± 7	96.2 ± 4	60.6 ± 2.4	40.8 ± 1.6	28.9 ± 1.2	21.3 ± 0.86	16.29 ± 0.66	12.82 ± 0.52	10.34 ± 0.42
